PubChem BioAssay (NCI)
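Exposure lasted 48 hours, with cells grown in 96-well plates and compounds tested at five concentrations. GI50 = concentration required for 50% inhibition of growth. The concentration for full growth arrest is given as TGI.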

Columns and labels:
Experiment in all cases: NCI anticancer screen, dose series, 48 h
[1] = test system: HL-60(TB) leukemia
[2] = test system: EKVX NSCLC
[3] = test system: OVCAR-4 ovarian
[4] = test system: CAKI-1 renal
[5] = test system: DU-145 prostate
[6] = test system: SK-MEL-28 melanoma
[7] = test system: PC-3 prostate
[8] = test system: SW-620 colon
[9] = test system: SK-OV-3 ovarian
[10] = test system: HOP-92 NSCLC

SMILES | TGI [1] | TGI [2] | TGI [3] | TGI [4] | TGI [5] [µM] | TGI [6] [µM] | TGI [7] [µM] | TGI [8] | TGI [9] | GI50 [10] | TGI [10] | GI50 [9] | GI50 [1] [µM] | GI50 [2] | GI50 [3] | GI50 [4] | GI50 [6] [µM] | GI50 [7] [µM] | GI50 [8]
O=C(O)c1ccccc1Sc1ccc(C=C2NC(=S)N(c3ccccc3)C2=O)s1 | 82.1 µM | > 100 µM | 59.8 µM | > 100 µM | > 100 | > 100 | > 100 | > 100 µM | – | – | – | – | – | – | – | – | – | – | –
c1ccc(-c2cc(-c3ccccc3)nc(-c3ccncc3)c2)cc1 | > 100 µM | > 100 µM | > 100 µM | > 100 µM | > 100 | > 100 | > 100 | > 100 µM | > 100 µM | – | – | – | – | – | – | – | – | – | –
O=C1CC2(CCN(Cc3ccccc3)CC2)C(=O)N1N1CCCCC1 | > 100 µM | – | – | > 100 µM | > 100 | > 100 | > 100 | > 100 µM | > 100 µM | – | – | – | – | – | – | – | – | – | –
c1c2c(cc3c1OCO3)-c1ncc3cc4c(cc3c1C2)OCO4 | > 100 µM | > 100 µM | > 100 µM | 2.14 µM | – | 41.8 | > 100 | > 100 µM | 26.8 µM | 33.4 µM | > 80.5 µM | < 0.01 µM | 0.0713 | 19 µM | 28.6 µM | < 0.0154 µM | < 0.01 | 0.581 | 0.136 µM
Cc1n[nH]c(=O)c2c3c([nH]c12)-c1ccccc1C3 | – | > 100 µM | > 100 µM | > 100 µM | > 100 | > 100 | > 100 | > 100 µM | > 100 µM | – | > 100 µM | – | – | – | – | – | – | – | –
CCc1nnc2sc(-c3ccc(-c4ccccc4[N+](=O)[O-])o3)nn12 | 99.2 µM | > 100 µM | > 100 µM | > 100 µM | > 100 | – | > 100 | > 100 µM | > 100 µM | – | > 100 µM | – | – | – | – | – | – | – | –
CC(=O)N(C(=O)CC(=O)N1N=C(C)C(N=Nc2cccc([N+](=O)[O-])c2)C1=O)c1ccc(Cl)cc1 (stereo not drawn) | > 10 µM | – | > 10 µM | > 10 µM | > 10 | > 10 | > 10 | > 10 µM | > 10 µM | – | > 10 µM | – | – | – | – | – | – | – | –
COc1ccc(C(CC(=O)c2cccs2)C(=O)c2ccc3c(c2)OCO3)cc1 (stereo not drawn) | > 100 µM | > 100 µM | > 100 µM | > 100 µM | > 100 | > 100 | > 100 | > 100 µM | > 100 µM | – | – | – | – | – | – | – | – | – | –
CC(NC(CC12CC3CC(CC(C3)C1)C2)C(N)=O)c1ccccc1 (stereo not drawn) | 28.4 µM | > 100 µM | 98.5 µM | 61.2 µM | > 100 | 40.4 | > 100 | > 100 µM | > 100 µM | – | – | – | – | – | – | – | – | – | –
O=c1[nH]nc(-c2cccc([N+](=O)[O-])c2)[nH]1 | > 100 µM | > 100 µM | > 100 µM | > 100 µM | > 100 | > 100 | > 100 | > 100 µM | – | – | – | – | – | – | – | – | – | – | –
CCC(C)C(NC(=O)c1cccc2c(=O)c3ccccc3[nH]c12)C(=O)O (stereo not drawn) | – | > 100 µM | > 100 µM | – | > 100 | > 100 | > 100 | > 100 µM | > 100 µM | – | > 100 µM | – | – | – | – | – | – | – | –
O=C(NCC(O)COc1ccccc1)c1ccccc1O (stereo not drawn) | – | > 100 µM | > 100 µM | > 100 µM | > 100 | > 100 | > 100 | > 100 µM | > 100 µM | – | > 100 µM | – | – | – | – | – | – | – | –
CC(=O)OC1CCC2(C)C(CCC3C2CCC2(C)C(c4ccc(=O)oc4)C(OC(C)=O)CC32O)C1 (stereo not drawn) | 0.114 µM | 0.0279 µM | 0.0253 µM | 0.0194 µM | – | 0.497 | – | 0.0593 µM | 0.103 µM | – | 0.0721 µM | – | – | – | – | – | – | – | –
Cc1ccc(-c2ccc3c(c2)Sc2ccccc2O3)n1C | 0.261 µM | > 88.3 µM | > 100 µM | > 73.1 µM | > 41.5 | > 100 | – | > 100 µM | > 100 µM | – | > 100 µM | – | – | – | – | – | – | – | –
Cc1c2ccncc2c(C)c2c1[nH]c1ccc(O)cc12 | 0.0548 µg/mL | 0.273 µg/mL | 0.303 µg/mL | 0.0686 µg/mL | – | – | – | 3.94 µg/mL | 0.261 µg/mL | 0.0448 µg/mL | 0.579 µg/mL | 0.0393 µg/mL | – | 0.0921 µg/mL | 0.148 µg/mL | 0.0137 µg/mL | – | – | 0.0267 µg/mL
COC1=CC(=O)[C@@]2(C)C(C)[C@H](c3ccccc3)[C@H]2C1=O (stereo partly drawn) | > 100 µM | > 100 µM | > 100 µM | > 100 µM | – | > 100 | – | > 100 µM | > 100 µM | – | > 100 µM | – | – | – | – | – | – | – | –
CCN(CC)C(=O)Cc1[nH][nH]c(=O)c1C(=O)N(CC)CC | > 100 µM | > 100 µM | > 100 µM | – | – | > 100 | – | > 100 µM | > 100 µM | – | > 100 µM | – | – | – | – | – | – | – | –
CC/C(CC(=O)CCC(=O)Nc1ccc(C)c(C)c1)=N\NC(=O)c1cc2ccccc2cc1O | 8.68 µM | 88.3 µM | > 100 µM | > 100 µM | – | 46.9 | – | > 100 µM | 87.3 µM | – | 91.3 µM | – | – | – | – | – | – | – | –
O=C1c2ccccc2CC12Cc1ccc3c(c1C2=O)CCCC3 (stereo not drawn) | > 100 µM | > 100 µM | > 100 µM | – | > 100 | > 100 | > 100 | > 100 µM | > 100 µM | – | – | – | – | – | – | – | – | – | –
CCOC(=O)/C(C(=O)c1ccc[nH]1)=C1/CCCN1C | > 100 µM | > 100 µM | > 100 µM | > 100 µM | > 100 | > 100 | > 100 | > 100 µM | > 100 µM | – | – | – | – | – | – | – | – | – | –
O=C1C=C2SC3C[C@@]24CC1(O)[N+]1=c2c4c(c(O)c4c2=C(C=N4)CC1)N3 | 0.534 µM | 40.9 µM | 2.53 µM | 4 µM | – | 3.03 | – | 0.809 µM | 3.78 µM | – | 2.67 µM | – | – | – | – | – | – | – | –
CCOC(=O)CN(CC)C(=O)NC12CC3CC(CC(C3)C1)C2 | 348 µM | > 422 µM | 568 µM | 483 µM | – | > 750 | – | > 750 µM | 513 µM | – | 176 µM | – | – | – | – | – | – | – | –
